From patent US9643967B2, “Pyrrolo[3,2-c]pyridine derivatives as TLR inhibitors” (TAKEDA PHARMACEUTICAL COMPANY LIMITED, priority 2013, dated 2017)
Where two headings read alike, the source gives them in different places.

Molecular target: T1, mTLR9 (Mus musculus, UniProt Q9EQU3)
T1 construct: Splenocytes isolated from male C57/BL6 mice; from tissue; host or cells: splenocytes from the spleen of male C57BL/6 mice
T1 sequence (Q9EQU3 26-1032): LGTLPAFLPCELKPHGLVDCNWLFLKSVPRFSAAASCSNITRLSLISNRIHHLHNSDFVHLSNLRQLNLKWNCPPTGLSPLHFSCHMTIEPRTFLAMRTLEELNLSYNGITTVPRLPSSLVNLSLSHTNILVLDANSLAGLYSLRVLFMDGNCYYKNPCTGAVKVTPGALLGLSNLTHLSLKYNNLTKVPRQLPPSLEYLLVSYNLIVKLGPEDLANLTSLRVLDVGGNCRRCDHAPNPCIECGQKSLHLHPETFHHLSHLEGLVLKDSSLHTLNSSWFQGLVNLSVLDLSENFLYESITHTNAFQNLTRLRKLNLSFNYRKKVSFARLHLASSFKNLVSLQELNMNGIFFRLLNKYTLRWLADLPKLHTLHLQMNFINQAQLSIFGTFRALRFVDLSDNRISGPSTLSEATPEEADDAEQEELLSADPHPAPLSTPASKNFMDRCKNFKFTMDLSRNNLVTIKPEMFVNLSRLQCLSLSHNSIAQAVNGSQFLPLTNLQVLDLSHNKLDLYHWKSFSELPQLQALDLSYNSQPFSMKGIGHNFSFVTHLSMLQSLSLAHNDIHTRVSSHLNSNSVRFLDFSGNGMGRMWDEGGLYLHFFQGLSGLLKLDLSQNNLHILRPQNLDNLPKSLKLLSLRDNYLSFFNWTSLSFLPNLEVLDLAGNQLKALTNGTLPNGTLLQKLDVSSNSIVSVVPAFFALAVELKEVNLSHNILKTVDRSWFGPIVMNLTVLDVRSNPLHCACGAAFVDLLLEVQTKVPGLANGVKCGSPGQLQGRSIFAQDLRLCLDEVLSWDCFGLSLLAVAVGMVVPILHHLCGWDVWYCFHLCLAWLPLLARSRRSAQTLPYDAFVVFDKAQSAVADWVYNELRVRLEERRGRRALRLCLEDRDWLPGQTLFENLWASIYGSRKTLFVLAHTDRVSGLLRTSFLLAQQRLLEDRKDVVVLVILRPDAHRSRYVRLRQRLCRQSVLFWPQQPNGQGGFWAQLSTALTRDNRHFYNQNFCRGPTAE
Assay: mTLR9 antagonism (IL-6 and TNF-α release assay) in mouse splenocytes, CpG ODN-2006 stimulated
Assay type: cell-based
Settings: 1 μM, mouse splenocytes
Excerpt: mTLR9 and mTLR7 Antagonism (Cytokine Release Assay) in Mouse Splenocytes
TLR7 ligand R0006 (IDT, 5′-rU*rU*rG*rU*rU*rG*rU*rU*rG*rU*rU*rG*rU*rU*rG*rU*rU*rG*rU*rU-3′ (SEQ ID NO:1)), Liposomal transfection reagent—DOTAP (Roche, Cat. No. 11202375001), TLR9 ligand CpG ODN2006 (Sequence: T*C*G*T*C*G*T*T*T*T*G*T*C*G*T*T*T*T*G*T*C*G*T*T; *=phosphorothioate (SEQ ID NO:2)) DMSO (Sigma, D2650), RPMI Powder (Sigma, R6504), Fetal Bovine Serum (Gibco, 10270), Dulbecco's Phosphate Buffered Saline (Sigma, D1408), 96 well plate (Flat bottom, Costar 3599), ELISA kit for IL-6 (EBioscience, 88-7064-77 and TNFa (EBioscience, 88-7346-88), MACS Buffer (AutoMACS Rinsing Solution (Miltenyl Biotec, 130-091-222)+0.05% BSA), RBC lysis buffer (0.85% NH4Cl), 40 μm cell strainer (BD Falcon, 352340) Method: A. Isolation of Mouse Splenocytes
Mouse spleen was isolated from C57BL6 mouse and stored in 1× chilled PBS buffer until further processed. Spleen was transferred to a sterile petriplate and chopped in to 5-6 pieces in presence of MACS buffer (100 μl) with the help of fresh surgical blade and crushed with flat plunger of a sterile syringe. A uniform suspension was prepared by passing cells through a 40 μm cell strainer. Cells were centrifuged at 450×g for 5 minutes at 4° C., supernatant was discarded and pellet dislodged gently, resuspended in 2 ml of pre-warmed (37° C.) RBC lysis buffer at room temperature with continuous gentle mixing with 1 ml pipette. Lysis buffer was neutralized with 12 ml of chilled MACS buffer and cells were passed through 40 μm cell strainer. Cell suspension was collected in 15 ml MACS buffer and centrifuged at 450×g for 5 minutes at 4° C. Pellet was resuspended in 15 ml MACS buffer and centrifuged at 400×g for 5 minutes. Cells were resuspended in 10 ml of RPMI complete medium and viability was estimated by Trypan blue method.
mTLR9 Antagonism (IL-6 and TNF-α Release Assay):
500 μM stock of CpG ODN-2006 was prepared in sterile, endotoxin-free water. Dilutions of 10× concentrations of NCEs were prepared in incomplete RPMI media, maintaining a final DMSO concentration of 0.3%. NCEs were added in a concentration range of 30 μM to 1 nM in respective wells of assay plate, assay medium containing 0.3% DMSO were added to control wells. 0.2 million splenocytes were added to all the wells and incubated at 37° C. in 5% CO2 incubator for 30 minutes. 1 μg/ml of respective agonist was added to all the wells except those were assigned as negative controls and mixed thoroughly. Incomplete RPMI was added to negative control wells and incubated overnight at 37° C./5% CO2. The plate was centrifuged at 450×g for 5 minutes at room temperature and the supernatant was collected. ELISA was performed as per manufacturer's protocol. S/B Ratio, % Activity and % Inhibition was calculated using MS Excel. IC50 and inhibition curve was generated using Graph Pad Prism.

[1] = TNF-α release, read-out: mTLR9 inhibitory activity (% at 1 μM), TNF-α
[2] = IL-6 release, read-out: mTLR9 inhibitory activity (% at 1 μM), IL-6

SMILES	inhibition at 1 µM [1] [%]	inhibition at 1 µM [2] [%]
Cc1nc(-c2ccc(N3CCN(C)CC3)cc2)c2cc(CN3CCOCC3)[nH]c2c1C [Example A37, 4-[[6,7-dimethyl-4-[4-(4-methylpiperazin-1-yl)phenyl]-1H-pyrrolo[3,2-c]pyridin-2-yl]methyl] morpholine]	100	
CCN1CCN(c2ccc(-c3nc(C)c(C)c4[nH]c(CN5CCOCC5)cc34)cc2)CC1 [Example A38, 4-[[4-[4-(4-ethylpiperazin-1-yl)phenyl]-6,7-dimethyl-1H-pyrrolo[3,2-c]pyridin-2-yl]methyl] morpholine]	100	100
Cc1nc(-c2ccc(N3CCN(C(C)C)CC3)cc2)c2cc(CN3CCCCC3)[nH]c2c1C [Example A39, 4-[4-(4-isopropylpiperazin-1-yl)phenyl]-6,7-dimethyl-2-(1-piperidylmethyl)-1H-pyrrolo[3,2-c]pyridine]	100	
Cc1nc(-c2ccc(N3CCN(C(C)C)CC3)cc2)c2cc(CN3CCCC3)[nH]c2c1C [Example A40, 4-[4-(4-isopropylpiperazin-1-yl)phenyl]-6,7-dimethyl 2-(pyrrolidin-1-ylmethyl)-1H-pyrrolo[3,2-c)pyridine]	100	
c1cc2[nH]c(CN3CCOCC3)cc2c(-c2ccc(N3CCNCC3)cc2)n1 [Example A42, 4-[[4-(4-(piperazin-1-yl)phenyl)-1H-pyrrolo[3,2-c]pyridin-2-yl]methyl] morpholine]	41	84
c1cc2[nH]c(CN3CCOCC3)cc2c(-c2ccc(OC3CCNCC3)cc2)n1 [Example A49, 4-[[4-[4-(4-piperidyloxy)phenyl]-1H-pyrrolo[3,2-c]pyridin-2-yl]methyl]morpholine]	15	65
Cc1cc2[nH]c(CN3CCOCC3)cc2c(-c2ccc(C3CCN(C(C)C)CC3)cc2)n1 [Example A51, 4-[[4-[4-(1-isopropyl-4-piperidyl)phenyl]-6-methyl-1H-pyrrolo[3,2-c]pyridin-2-yl]methyl]morpholine]	90	100
CC(C)N1CC=C(c2ccc(-c3nccc4[nH]c(CN5CCOCC5)cc34)cn2)CC1 [Example A52, 4-[[4-[6-(1-isopropyl-3,6-dihydro-2H-pyridin-4-yl)-3-pyridyl]-1H-pyrrolo[3,2-c]pyridin-2-yl]methyl]morpholine]	29	100
CC(C)N1CCN(c2ccc(-c3nccc4[nH]c(CN5CCOCC5)cc34)cn2)CC1 [Example A53, 4-[[4-[6-(4-isopropylpiperazin-1-yl)-3-pyridyl]-1H-pyrrolo[3,2-c]pyridin-2-yl]methyl]morpholine]	80	100
CC(C)N1CCC(n2cc(-c3nccc4[nH]c(CN5CCOCC5)cc34)cn2)CC1 [Example A54, 4-[[4-[1-(1-isopropyl-4-piperidyl)pyrazol-4-yl]-1H-pyrrolo[3,2-c]pyridin-2-yl]methyl]morpholine]	0	
CC(C)N1CCN(Cc2ccc(-c3nccc4[nH]c(CN5CCOCC5)cc34)cc2)CC1 [Example A55, 4-[[4-[4-[(4-isopropylpiperazin-1-yl)methyl]phenyl]-1H-pyrrolo[3,2-c]pyridin-2-yl]methyl]morpholine]	59	96
CC(C)N1CCC(Oc2ccc(-c3nccc4[nH]c(CN5CCOCC5)cc34)cc2)CC1 [Example A56, 4-[[4-[4-[(1-isopropyl-4-piperidyl)oxy]phenyl]-1H-pyrrolo[3,2-c]pyridin-2-yl]methyl]morpholine]	71	
CC(C)N1CCN(c2cccc(-c3nccc4[nH]c(CN5CCOCC5)cc34)c2)CC1 [Example A57, 4-[[4-[3-(4-isopropylpiperazin-1-yl)phenyl]-1H-pyrrolo[3,2-c]pyridin-2-yl]methyl]morpholine]	34	100
CN1CCN(Cc2ccc(-c3nccc4[nH]c(CN5CCOCC5)cc34)cc2)CC1 [Example A60, 4-[[4-[4-[(4-methylpiperazin-1-yl)methyl]phenyl]-1H-pyrrolo[3,2-c]pyridin-2-yl]methyl]morpholine]	38	0
CN1CCN(c2cccc(-c3nccc4[nH]c(CN5CCOCC5)cc34)c2)CC1 [Example A61, 4-[[4-[3-(4-methylpiperazin-1-yl)phenyl]-1H-pyrrolo[3,2-c]pyridin-2-yl]methyl]morpholine]	45	100
CN1CCC(Oc2ccc(-c3nccc4[nH]c(CN5CCOCC5)cc34)cc2)CC1 [Example A62, 4-[[4-[4-[(1-methyl-4-piperidyl)oxy]phenyl]-1H-pyrrolo[3,2-c]pyridin-2-yl]methyl]morpholine]	79	
CN1CCC(n2cc(-c3nccc4[nH]c(CN5CCOCC5)cc34)cn2)CC1 [Example A63, 4-[[4-[1-(1-methyl-4-piperidyl)pyrazol-4-yl]-1H-pyrrolo[3,2-c]pyridin-2-yl]methyl]morpholine]	0	
CC(C)N1CCC(c2ccc(-c3nccc4[nH]c(CN5CCOCC5)cc34)cn2)CC1 [Example A64, 4-[[4-[6-(1-isopropyl-4-piperidyl)-3-pyridyl]-1H-pyrrolo[3,2-c]pyridin-2-yl]methyl]morpholine]	0	25
CC(C)N1CCC(c2ccc(-c3nccc4[nH]c(CN5CCOCC5)cc34)cc2)CC1 [Example A70, 4-[[4-[4-(1-isopropyl-4-piperidyl)phenyl]-1H-pyrrolo[3,2-c]pyridin-2-yl]methyl]morpholine]	52	95
CC(C)N1CCN(c2ccc(-c3nccc4[nH]c(CN5CC(O)C5)cc34)cc2)CC1 [Example A72, 1-[[4-[4-(4-isopropylpiperazin-1-yl)phenyl]-1H-pyrrolo[3,2-c]pyridin-2-yl]methyl]azetidin-3-ol]	0	72
CC(C)N1CCN(c2ccc(-c3nccc4[nH]c(CN5CCC[C@@H]5C(=O)O)cc34)cc2)CC1 [Example A74, (2R)-1-[[4-[4-(4-isopropylpiperazin-1-yl)phenyl]-1H-pyrrolo[3,2-c]pyridin-2-yl]methyl]pyrrolidine-2-carboxylic acid]	95	
